Laboratory results published in ChEMBL document CHEMBL4041503, “A Hexacyclic, Iboga-Derived Monoterpenoid Indole with a Contracted Tetrahydroazepine C-Ring and Incorporation of an Isoxazolidine Moiety, a Seco-Corynanthean, an Aspidosperma-Aspidosperma Bisindole with Anticancer Properties, and the Absolute Configuration of the Pyridopyrimidine Indole Alkaloid, …” (J Nat Prod, 2016).

Legend:
Format in all cases: functional, cell-based
MDA-MB-231 = assay: Cytotoxicity against human MDA-MB-231 cells assessed as reduction in cell viability after 72 hrs by MTT assay; conditions: MDA-MB-231, 72 h
LNCaP = assay: Cytotoxicity against human LNCAP cells assessed as reduction in cell viability after 72 hrs by MTT assay
PC-3 = assay: Cytotoxicity against human PC3 cells assessed as reduction in cell viability after 72 hrs by MTT assay; conditions: PC-3, 72 h
A549 = assay: Cytotoxicity against human A549 cells assessed as reduction in cell viability after 72 hrs by MTT assay; conditions: A549, 72 h
HT-29 = assay: Cytotoxicity against human HT-29 cells assessed as reduction in cell viability after 72 hrs by MTT assay; conditions: HT-29, 72 h
KB/VJ300 = assay: Cytotoxicity against human KB/VJ300 cells assessed as reduction in cell viability after 72 hrs by MTT assay; conditions: KB/VJ300, 72 h
[1] = Cytotoxicity against human KB/S cells assessed as reduction in cell viability after 72 hrs by MTT assay
HCT-116 = assay: Cytotoxicity against human HCT116 cells assessed as reduction in cell viability after 72 hrs by MTT assay; conditions: HCT-116, 72 h
MCF7 = assay: Cytotoxicity against human MCF7 cells assessed as reduction in cell viability after 72 hrs by MTT assay; conditions: MCF7, 72 h

SMILES | IC50 (MDA-MB-231) [µM] | IC50 (LNCaP) [µM] | IC50 (PC-3) [µM] | IC50 (A549) [µM] | IC50 (HT-29) [µM] | IC50 (KB/VJ300) [µM] | IC50 [1] [µM] | IC50 (HCT-116) [µM] | IC50 (MCF7) [µM]
CC[C@]12C=CCN3CC[C@]4(C(=C(C(=O)OC)C1)Nc1cc5c(cc14)[C@@H]1[C@H](O5)[C@@H](O)[C@@]4(CC)CC(C(=O)OC)=C5Nc6c(cc(O)c(OC)c6OC)[C@@]56CCN1[C@@H]46)[C@@H]32 | 0.9 | 0.9 | 0.2 | 10 | 1.1 | > 10 | 1.5 | 0.8 | 0.6
CC[C@@]12CC(C(=O)OC)=C3Nc4c(cc(O)c(OC)c4OC)[C@@]34CCN([C@@H]3c5cc6c(cc5O[C@@H]3[C@H]1O)NC1=C(C(=O)OC)C[C@]35CCO[C@H]3CCN3CC[C@@]16[C@@H]35)[C@@H]24 | 0.8 | 0.3 | 1.1 | > 10 | 0.3 | 7.4 | 0.5 | 0.4 | 5.9
CC[C@]1(O)C[C@H]2CN(CCc3c([nH]c4ccccc34)[C@@](C(=O)OC)(c3cc4c(cc3OC)N(C=O)[C@H]3[C@@](O)(C(=O)OC)[C@H](OC(C)=O)[C@]5(CC)C=CCN6CC[C@]43[C@@H]65)C2)C1 [VINCRISTINE] |  |  |  |  |  | 5.9 | 0.002 |  | 
